{"source": "patent US20030216361A1", "about": "“Therapeutic compositions effective against gram positive bacteria” (priority 2000, published 2003)", "key": {"[1]": {"tested_on": "Candida albicans ATCC 90028", "test": "Disk diffusion susceptibility testing"}, "Lactobacillus spp.": {"tested_on": "Lactobacillus spp.", "test": "Broth macrodilution MIC and MBC, clinical isolates", "conditions": "clinical isolate, 1 strain"}, "S. pneumoniae 6303": {"tested_on": "S. pneumoniae 6303", "test": "Time-kill studies", "assay_type": "cell-based, Streptococcus pneumoniae", "excerpt": "This experiment illustrates a study of the time required (time-kill studies) for anti-microbial action of 3β-acetoxy-17β-(L-prolyl) amino-5α-androstane with certain gram positive bacteria.\nOvernight cultures of Staphylococcus aureus 29213, Enterococcus faecalis 29212 and S. pneumoniae 6303 in MHII broth were inoculated into the same medium containing multiples of the broth macrodilution MIC of 3β-acetoxy-17β-(L-prolyl) amino-5α-androstane, or an equivalent volume of MeOH. Cultures were shaken at 37° C., and aliquots were aseptically removed at various times for dilution plating. Standard errors of the means were calculated from at least two experiments. The detection limit in these experiments was 10 CFU/ml."}, "S. aureus ATCC 29213": {"tested_on": "S. aureus ATCC 29213", "test": "Effect of pH on broth macrodilution MICs", "assay_type": "cell-based, Staphylococcus aureus"}, "[2]": {"tested_on": "Neisseria gonorrhoeae ATCC 49226", "test": "Disk diffusion susceptibility testing"}, "N. farcinica": {"tested_on": "N. farcinica", "test": "Broth macrodilution MIC and MBC, clinical isolates", "conditions": "clinical isolate, 1 strain"}, "[3]": {"tested_on": "Cryptococcus neoformans ATCC 90112", "test": "Disk diffusion susceptibility testing"}, "[4]": {"tested_on": "Staphylococcus epidermidis Presque Isle 4653", "test": "Disk diffusion susceptibility testing"}, "[5]": {"tested_on": "Methicillin-resistant Staphylococcus aureus, clinical isolate", "test": "Effect of pH on broth macrodilution MICs", "assay_type": "cell-based"}, "[6]": {"tested_on": "Staphylococcus aureus ATCC 29213", "test": "Disk diffusion susceptibility testing"}, "[7]": {"tested_on": "Enterococcus faecalis ATCC 29212", "test": "Disk diffusion susceptibility testing"}, "B. cereus": {"tested_on": "B. cereus", "test": "Broth macrodilution MIC and MBC, clinical isolates", "conditions": "5 strains"}, "[8]": {"tested_on": "Corynebacterium diphtheriae, clinical isolate", "test": "Effect of pH on broth macrodilution MICs", "assay_type": "cell-based"}, "Group A Streptococcus": {"tested_on": "Group A Streptococcus", "test": "Broth macrodilution MIC and MBC, clinical isolates"}, "[9]": {"tested_on": "Staphylococcus aureus ATCC 29213", "test": "Broth macrodilution MIC and MBC, reference strains", "conditions": "ATCC29213"}, "[10]": {"tested_on": "Proteus vulgaris Presque Isle 365", "test": "Disk diffusion susceptibility testing"}, "Rhodococcus spp.": {"tested_on": "Rhodococcus spp.", "test": "Broth macrodilution MIC and MBC, clinical isolates"}, "[11]": {"tested_on": "Corynebacterium diphtheriae", "test": "Broth macrodilution MIC and MBC, clinical isolates", "conditions": "3 strains"}, "[12]": {"tested_on": "Streptococcus pneumoniae ATCC 6303", "test": "Broth macrodilution MIC and MBC, reference strains", "conditions": "ATCC6303"}, "[13]": {"tested_on": "Enterobacter cloacae ATCC 13047", "test": "Disk diffusion susceptibility testing"}, "[14]": {"tested_on": "Enterococcus faecalis ATCC 29212", "test": "Frequency of occurrence of spontaneous resistant mutants", "assay_type": "cell-based", "conditions": "24 h", "experimental": "(§1) Overnight cultures of S. aureus 29213, E. faecalis 29212, S. pneumoniae 6303 and Bacillus subtilis 620 were diluted to an OD625nm=0.08 0.1 ml of each preparation was spread onto agar plates containing four or eight times the broth macrodilution MIC of the androstane derivative. The starting inoculum for each organism was also diluted and plated onto drug-free plates for determination of CFU/ml. After a 24 h incubation at the appropriate temperature, the number of bacterial colonies on drug-supplemented agar was counted. The frequency of occurrence of spontaneous mutants was calculated by dividing the number of colonies on drug containing plates by the number of colonies in the inoculum. When no colonies were visualized on drug-containing plates, the calculation was (<) 1 colony divided by the number of colonies in the inoculum."}, "[15]": {"tested_on": "Staphylococcus aureus ATCC 29213", "test": "Frequency of occurrence of spontaneous resistant mutants", "assay_type": "cell-based", "conditions": "24 h", "experimental": "as §1"}, "[16]": {"tested_on": "Streptococcus pneumoniae ATCC 6303", "test": "Frequency of occurrence of spontaneous resistant mutants", "assay_type": "cell-based", "conditions": "24 h", "experimental": "as §1"}, "[17]": {"tested_on": "Bacillus subtilis Presque Isle 620", "test": "Effect of pH on broth macrodilution MICs", "assay_type": "cell-based"}, "[18]": {"tested_on": "S. epidermidis Presque Isle 4653", "test": "Broth macrodilution MIC and MBC, reference strains", "conditions": "Staphylococcus epidermidis"}, "R. equi": {"tested_on": "R. equi", "test": "Broth macrodilution MIC and MBC, clinical isolates", "conditions": "3 strains"}, "[19]": {"conditions": "pH 6, range of 3 determinations"}, "[20]": {"conditions": "pH 7, range of 3 determinations"}, "[21]": {"conditions": "pH 8, range of 3 determinations"}, "[22]": {"conditions": "agar with 4X broth macrodilution MIC"}, "[23]": {"conditions": "agar with 8X broth macrodilution MIC"}}, "note": "Like-named read-outs stand apart in the source and are kept apart here."}
{"compound": "CC(=O)O[C@H]1CC[C@@]2(C)[C@@H](CC[C@@H]3[C@@H]2CC[C@]2(C)[C@@H](NC(=O)[C@@H]4CCCN4)CC[C@@H]32)C1", "values": [{"measurement": "MIC", "setting": "[1]", "result": ">100", "unit": "μg/disk"}, {"measurement": "MBC Range", "setting": "Lactobacillus spp.", "result": 32, "unit": "µg/mL"}, {"measurement": "MIC Range", "setting": "Lactobacillus spp.", "result": 16, "unit": "µg/mL"}, {"measurement": "Killing (concentration dependence)", "setting": "S. pneumoniae 6303", "result": "concentration-dependent"}, {"measurement": "Killing (time dependence)", "setting": "S. pneumoniae 6303", "result": "time-dependent"}, {"measurement": "time to 99.9% kill", "setting": "S. pneumoniae 6303; at the MIC", "result": 6, "unit": "h"}, {"measurement": "survivors after 24 h", "setting": "S. pneumoniae 6303; one times the MIC", "result": "no survivors"}, {"measurement": "time to 99.9% kill", "setting": "S. pneumoniae 6303; two times the MIC", "result": 2, "unit": "h"}, {"measurement": "survivors after 24 h", "setting": "S. pneumoniae 6303; two times the MIC", "result": "no survivors"}, {"measurement": "MIC Range", "setting": "S. aureus ATCC 29213; [19]", "result": "8 to 16", "unit": "µg/mL"}, {"measurement": "MIC Range", "setting": "S. aureus ATCC 29213; [20]", "result": 8, "unit": "µg/mL"}, {"measurement": "MIC Range", "setting": "S. aureus ATCC 29213; [21]", "result": 4, "unit": "µg/mL"}, {"measurement": "MIC", "setting": "[2]", "result": ">100", "unit": "μg/disk"}, {"measurement": "MBC Range", "setting": "N. farcinica", "result": 64, "unit": "µg/mL"}, {"measurement": "MIC Range", "setting": "N. farcinica", "result": 16, "unit": "µg/mL"}, {"measurement": "MIC", "setting": "[3]", "result": ">100", "unit": "μg/disk"}, {"measurement": "MIC", "setting": "[4]", "result": "6.25-12.5 μg/disk"}, {"measurement": "MIC Range", "setting": "[5]; [19]", "result": 16, "unit": "µg/mL"}, {"measurement": "MIC Range", "setting": "[5]; [20]", "result": 8, "unit": "µg/mL"}, {"measurement": "MIC Range", "setting": "[5]; [21]", "result": 4, "unit": "µg/mL"}, {"measurement": "MIC", "setting": "[6]", "result": "12.5-25 μg/disk"}, {"measurement": "MIC", "setting": "[7]", "result": "25-50 μg/disk"}, {"measurement": "MBC Range", "setting": "B. cereus", "result": ">64", "unit": "µg/mL"}, {"measurement": "MIC Range", "setting": "B. cereus", "result": 32, "unit": "µg/mL"}, {"measurement": "MIC Range", "setting": "[8]; [19]", "result": 16, "unit": "µg/mL"}, {"measurement": "MIC Range", "setting": "[8]; [20]", "result": "4 to 8", "unit": "µg/mL"}, {"measurement": "MIC Range", "setting": "[8]; [21]", "result": "2 to 4", "unit": "µg/mL"}, {"measurement": "share of strains with MBC/MIC ratios ≦2", "setting": "Group A Streptococcus; Group A Streptococcus", "result": 89, "unit": "%"}, {"measurement": "MIC50", "setting": "Group A Streptococcus; Streptococcus", "result": 8, "unit": "µg/mL"}, {"measurement": "MIC90", "setting": "Group A Streptococcus; Streptococcus", "result": 16, "unit": "µg/mL"}, {"measurement": "MBC", "setting": "Group A Streptococcus; Streptococcus, read-out: MBC 50%", "result": 16, "unit": "µg/mL"}, {"measurement": "MBC", "setting": "Group A Streptococcus; Streptococcus, read-out: MBC 90%", "result": 32, "unit": "µg/mL"}, {"measurement": "MBC Range", "setting": "Group A Streptococcus; clinical isolates, 18 strains", "result": "8 to 32", "unit": "µg/mL"}, {"measurement": "MIC Range", "setting": "Group A Streptococcus; clinical isolates, 18 strains", "result": "8 to 16", "unit": "µg/mL"}, {"measurement": "MBC", "setting": "[9]", "result": 64, "unit": "µg/mL"}, {"measurement": "MIC", "setting": "[9]", "result": 4, "unit": "µg/mL"}, {"measurement": "MIC", "setting": "[10]", "result": ">100", "unit": "μg/disk"}, {"measurement": "MIC50", "setting": "Rhodococcus spp.; Rhodococcus", "result": 8, "unit": "µg/mL"}, {"measurement": "MIC90", "setting": "Rhodococcus spp.; Rhodococcus", "result": 16, "unit": "µg/mL"}, {"measurement": "share of strains with MBC/MIC ratios ≦2", "setting": "Rhodococcus spp.; Rhodococcus spp.", "result": 58, "unit": "%"}, {"measurement": "MBC", "setting": "Rhodococcus spp.; Rhodococcus, read-out: MBC 50%", "result": 16, "unit": "µg/mL"}, {"measurement": "MBC", "setting": "Rhodococcus spp.; Rhodococcus, read-out: MBC 90%", "result": 32, "unit": "µg/mL"}, {"measurement": "MIC Range", "setting": "Rhodococcus spp.; clinical isolates, 19 strains, read after 48 h", "result": "4 to 64", "unit": "µg/mL"}, {"measurement": "MBC Range", "setting": "[11]", "result": 8, "unit": "µg/mL"}, {"measurement": "MIC Range", "setting": "[11]", "result": "4 to 8", "unit": "µg/mL"}, {"measurement": "MBC", "setting": "[12]", "result": 16, "unit": "µg/mL"}, {"measurement": "MIC", "setting": "[12]", "result": 16, "unit": "µg/mL"}, {"measurement": "MIC", "setting": "[13]", "result": ">100", "unit": "μg/disk"}, {"measurement": "Frequency at 4X MIC", "setting": "[14]; [22]", "result": "8.9 × 10^−7"}, {"measurement": "Frequency at 8X MIC", "setting": "[14]; [23]", "result": "<1 × 10^−8"}, {"measurement": "Frequency at 4X MIC", "setting": "[15]; [22]", "result": "1.2 × 10^−6"}, {"measurement": "Frequency at 8X MIC", "setting": "[15]; [23]", "result": "<6 × 10^−9"}, {"measurement": "Frequency at 4X MIC", "setting": "[16]; [22]", "result": "<3.3 × 10^−6"}, {"measurement": "Frequency at 8X MIC", "setting": "[16]; [23]", "result": "<3.3 × 10^−6"}, {"measurement": "MIC Range", "setting": "[17]; [19]", "result": 8, "unit": "µg/mL"}, {"measurement": "MIC Range", "setting": "[17]; [20]", "result": "4 to 8", "unit": "µg/mL"}, {"measurement": "MIC Range", "setting": "[17]; [21]", "result": "4 to 8", "unit": "µg/mL"}, {"measurement": "MBC", "setting": "[18]", "result": 32, "unit": "µg/mL"}, {"measurement": "MIC", "setting": "[18]", "result": 8, "unit": "µg/mL"}, {"measurement": "MBC Range", "setting": "R. equi", "result": "16 to 32", "unit": "µg/mL"}, {"measurement": "MIC Range", "setting": "R. equi; read after 48 h", "result": "4 to 8", "unit": "µg/mL"}]}
